{
  "source": "patent US20210345602A1",
  "about": "“MAMMAL CELL PRESERVING SOLUTION CONTAINING ACARBOSE OR STACHYOSE” (OTSUKA PHARMACEUTICAL FACTORY, INC., priority 2018, published 2021)",
  "format_in_all_cases": "cell-based",
  "key": {"[1]": {"test_system": "bone marrow-derived human mesenchymal stem cells (hMSCs)", "experiment": "Viability of hMSCs after preservation in test isotonic liquid, trypan blue staining method", "settings": "for effect of suppressing the decrease in cell viability (screening of 93 saccharides): saccharide 87.5 mM in Lactec injection, compared with 88 mM trehalose or lactated Ringer's solution; for Cell viability (%) (Mean ± Standard deviation [SD]): n=3", "experimental": "[1] 4×10^5 hMSCs were added to a 75-cm^2 flask and cultured at 37° C. in a 5% CO2 incubator in the presence of a medium. The state of the cells was observed under a microscope, and the cells were cultured until about 80% confluent. The medium was removed, and the hMSCs were rinsed with 8-mL PBS(−). The PBS(−) was removed, and 3.75-mL trypsin-EDTA (manufactured by Lonza) was added thereto, and the mixture was left standing at room temperature for 5 minutes. The hMSCs were observed under a microscope and slowly shaken until about 90% of them were exfoliated. 3.75 mL of medium was added thereto, to stop the trypsin reaction, and the hMSCs were collected by pipetting and transferred to a 50-mL centrifuge tube. […] Centrifugation was performed at 600×g and 22° C. for 5 minutes. The supernatant (medium) was removed, 1.5 mL of PBS(−) was added thereto, and the precipitate (hMSCs) was suspended. The number of cells was measured and adjusted with PBS(−) to 5×10^3 cells/mL, to prepare PBS containing hMSCs. [Method for Preserving hMSCs in Each Test Isotonic Liquid]\n[1] 0.5 mL of the PBS containing hMSCs prepared was dispensed into each tube and centrifuged (at 600×g for 5 minutes). […] [Analysis of Viability of hMSCs by Trypan Blue Staining Method]\n[1] […] Thereafter, 20 μL of a trypan blue staining solution (manufactured by Gibco) was mixed thereto. As a comparative control, 20 μL (equivalent to 1×10^4 cells) was collected from each PBS containing hMSCs before suspension in each test isotonic liquid (before preservation at 4° C.) and transferred to a tube. Thereafter, 20 μL of a trypan blue staining solution was mixed thereto. The total number of cells and the number of trypan blue-positive cells (dead cells) were measured under a microscope using OneCell Counter (manufactured by Bio Medical Science), to calculate the percentage of trypan blue-negative cells to the total number of cells, that is, the cell viability."}, "[2]": {"test_system": "rat hepatocytes", "experiment": "Viability of rat hepatocytes after preservation in test isotonic liquid, trypan blue staining method", "settings": "rat hepatocytes preserved at 4° C. for 24 hours; n=6; Pre 70.8±3.32", "protocol": "A stock tube of rat hepatocytes was taken out of a liquid nitrogen tank and thawed in a constant temperature bath at 37° C. […] Immediately after thawing, it was allowed to stand on ice and transferred to a 50-mL centrifuge tube. […] 25 mL of hepatocyte wash medium (which will be hereinafter referred to as “wash medium”) (manufactured by GIBCO) cooled with ice was added dropwise. […] Centrifugation was performed at 50×g and 4° C. for 3 minutes. […] The supernatant (wash medium) was removed, 6 mL of wash medium was added thereto, and the precipitate (rat hepatocytes) was suspended by pipetting 2 to 3 times. […] The number of cells was measured and adjusted with a wash medium to 5×10^3 cells/mL, to prepare a wash medium containing rat hepatocytes.\n0.5 mL of the wash medium containing rat hepatocytes prepared was dispensed into each tube and centrifuged (at 50×g and 4° C. for 3 minutes). […] The supernatant (wash medium) was removed, and the precipitate (rat hepatocytes) was suspended in 0.5 mL of each test isotonic liquid and preserved at 4° C. for 24 hours."}, "[3]": {"test_system": "bone marrow-derived human mesenchymal stem cells (hMSCs)", "experiment": "Cell aggregation level of hMSCs after preservation, phase contrast microscope", "settings": "hMSCs preserved at 25° C. for 48 hours; 88 mM acarbose in Lactec injection", "experimental": "The hMSCs were preserved in each test isotonic liquid at 25° C. for 48 hours according to the method described in Example 1. Each test isotonic liquid containing the hMSCs after preservation was partially collected, and the presence or absence of cell aggregates in which three or more cells gather together was observed under a phase contrast microscope."}, "[4]": {"test_system": "CD8-positive T cells", "experiment": "Viability of expansion-cultured CD8-positive T cells after preservation, trypan blue staining method", "settings": "CD8-positive T cells preserved at 5° C. for 24 hours; n=3", "protocol": "Cryopreserved CD8-positive T cells were thawed, then washed with a lymphocyte culture medium (LGM3, manufactured by Lonza), and incubated in the medium for about 1 hour (at 37° C. in 5% CO2). […] The medium containing the CD8-positive T cells was separated and centrifuged (at 300×g and room temperature for 10 minutes). […] The supernatant was removed, and the cells were suspended in TLY CULTURE kit 25 (manufactured by GC LYMPHOTEC Inc.) and the CD8-positive T cells were expansion-cultured under conditions of 37° C. and 5% CO2 for 7 days.\nCD8-positive T cells (with a cell concentration of about 1.1×10^6 cells/5 mL) expansion-cultured for 7 days were washed with Lactec injection containing 88 mM trehalose, dispensed in Stemfull tube (manufactured by Sumitomo Bakelite Co., Ltd.), and then centrifuged (at 300×g and room temperature for 10 minutes). […] The supernatant was removed, and the precipitate (CD8-positive T cells) was suspended in 3 kinds of test isotonic liquids (Lactec injection containing 88 mM acarbose, Lactec injection containing 88 mM trehalose, and Lactec injection) and then preserved at 5° C. for 24 hours. […] After preservation for 24 hours, the cell viability was measured according to the method described in procedure [2] above."}, "[5]": {"settings": "hMSCs preserved at 4° C. for 3 days"}, "[6]": {"settings": "hMSCs preserved at 4° C. for 2 days, Pre 94.7±2.1"}, "[7]": {"settings": "hMSCs preserved at 5° C. for 4 days, Pre 93.7±2.0%"}, "[8]": {"settings": "hMSCs preserved at 4° C. for 3 days, α-glucosidase inhibitors 175 mM, Pre 98.5±0.6"}},
  "data": [
    {"compound": "CC1(C)O[C@H](CO)[C@@H](CO)O1", "note": "[(−)-2,3-O-iso propylidene-D-threitol]", "values": [
      {"measurement": "effect of suppressing the decrease in cell viability (screening of 93 saccharides)", "setting": "[1]; [5]", "value": "cell viability decreased"}
    ]},
    {"compound": "OC[C@H]1O[C@H](OC[C@H]2O[C@H](OC[C@H]3O[C@H](O[C@]4(CO)O[C@H](CO)[C@@H](O)[C@@H]4O)[C@H](O)[C@@H](O)[C@@H]3O)[C@H](O)[C@@H](O)[C@H]2O)[C@H](O)[C@@H](O)[C@H]1O", "note": "[stachyose]", "values": [
      {"measurement": "Cell viability (%) (Mean ± Standard deviation [SD])", "setting": "[1]; [6]", "value": "cell viability increased"},
      {"measurement": "Cell viability (%) (Mean ± Standard deviation [SD])", "setting": "[1]; [7]", "value": "cell viability significantly increased at any concentration"},
      {"measurement": "effect of suppressing the decrease in cell viability (screening of 93 saccharides)", "setting": "[1]; [5]", "value": "higher effect of suppressing the decrease in cell viability than trehalose"}
    ]},
    {"compound": "C[C@H]1O[C@H](O[C@H]2[C@H](O)[C@@H](O)[C@@H](O[C@H]3[C@H](O)[C@@H](O)C(O)O[C@@H]3CO)O[C@@H]2CO)[C@H](O)[C@@H](O)[C@@H]1N[C@H]1C=C(CO)[C@@H](O)[C@H](O)[C@H]1O", "note": "(stereo partly shown) [acarbose]", "values": [
      {"measurement": "Cell viability (%) (Mean ± Standard deviation [SD])", "setting": "[1]; [6]", "value": "cell viability increased"},
      {"measurement": "Cell viability (%) (Mean ± Standard deviation [SD])", "setting": "[1]; [8]", "value": "cell viability increased"},
      {"measurement": "effect of suppressing the decrease in cell viability (screening of 93 saccharides)", "setting": "[1]; [5]", "value": "higher effect of suppressing the decrease in cell viability than trehalose"},
      {"measurement": "Cell viability (%) (Mean ± Standard deviation [SD])", "setting": "[2]", "value": "cell viability significantly increased"},
      {"measurement": "presence or absence of cell aggregates (three or more cells)", "setting": "[3]", "value": "almost no cell aggregates were observed"},
      {"measurement": "Cell viability (%) (Mean ± Standard deviation [SD]) 24 hours", "setting": "[4]", "value": "cell viability significantly increased"}
    ]},
    {"compound": "O=C[C@H](O)[C@@H](O)[C@@H](O)[C@H](O)C(=O)O", "note": "[D-galacturonic acid]", "values": [
      {"measurement": "effect of suppressing the decrease in cell viability (screening of 93 saccharides)", "setting": "[1]; [5]", "value": "cell viability decreased"}
    ]},
    {"compound": "OCC(CO)N[C@H]1C[C@](O)(CO)[C@@H](O)[C@H](O)[C@H]1O", "note": "[voglibose]", "values": [
      {"measurement": "Cell viability (%) (Mean ± Standard deviation [SD])", "setting": "[1]; [8]", "value": "cell viability was almost unchanged"}
    ]},
    {"compound": "N[C@@H]1C(O)O[C@H](CO)[C@@H](O)[C@@H]1O", "note": "(stereo partly drawn) [D-mannosamine]", "values": [
      {"measurement": "effect of suppressing the decrease in cell viability (screening of 93 saccharides)", "setting": "[1]; [5]", "value": "cell viability decreased"}
    ]},
    {"compound": "OCCN1C[C@H](O)[C@@H](O)[C@H](O)[C@H]1CO", "note": "[miglitol]", "values": [
      {"measurement": "Cell viability (%) (Mean ± Standard deviation [SD])", "setting": "[1]; [8]", "value": "cell viability was almost unchanged"}
    ]},
    {"compound": "OC[C@H]1O[C@H](O[C@H]2[C@H](O)[C@@H](O)[C@@H](O[C@H]3[C@H](O)[C@@H](O)[C@@H](O[C@H]4[C@H](O)[C@@H](O)C(O)O[C@@H]4CO)O[C@@H]3CO)O[C@@H]2CO)[C@H](O)[C@@H](O)[C@@H]1O", "note": "(stereo partly shown) [maltotetraose]", "values": [
      {"measurement": "Cell viability (%) (Mean ± Standard deviation [SD])", "setting": "[1]; [6]", "value": "such an increase in cell viability was not observed"}
    ]},
    {"compound": "OC[C@H]1O[C@H](O[C@H]2O[C@H](CO)[C@@H](O)[C@H](O)[C@H]2O)[C@H](O)[C@@H](O)[C@@H]1O", "note": "[trehalose]", "values": [
      {"measurement": "Cell viability (%) (Mean ± Standard deviation [SD])", "setting": "[1]; [7]", "value": "cell viability increased"},
      {"measurement": "Cell viability (%) (Mean ± Standard deviation [SD]) 24 hours", "setting": "[4]", "value": "cell viability increased"}
    ]},
    {"compound": "OC[C@H]1O[C@@](CO)(OC[C@@]2(OC[C@@]3(O[C@H]4O[C@H](CO)[C@@H](O)[C@H](O)[C@H]4O)O[C@H](CO)[C@@H](O)[C@@H]3O)O[C@H](CO)[C@@H](O)[C@@H]2O)[C@@H](O)[C@@H]1O", "note": "[nystose]", "values": [
      {"measurement": "Cell viability (%) (Mean ± Standard deviation [SD])", "setting": "[1]; [6]", "value": "such an increase in cell viability was not observed"}
    ]},
    {"compound": "O=C(O)[C@H](O)[C@@H](O)[C@H](O[C@@H]1O[C@H](CO)[C@H](O)[C@H](O)[C@H]1O)[C@H](O)CO", "note": "[D-lactobionic acid]", "values": [
      {"measurement": "effect of suppressing the decrease in cell viability (screening of 93 saccharides)", "setting": "[1]; [5]", "value": "cell viability decreased"}
    ]}
  ]
}
